Data: patent US20080248008A1, “Inhibitors of Protein Kinase a Anchoring” (priority 2004, published 2008)

Columns and labels:
[1] = tested on: N-terminal RIα deletion mutants; assay: R-overlay with N-terminal RIα deletion mutants; type: binding; conditions: compared with RIα
Protocol: (§1) R-overlay. R-overlays were conducted as described, using ^32P-labeled recombinant murine RII (Hausken, Z. E., et al., 1998 in Protein Targeting Protocols, ed. Clegg, R. A. (Humana, Totowa, N.J.), Vol. 88, pp. 47-64) or recombinant bovine RI (A98S) or by cold RI-overlay where bound RIα was detected by Western blot. Cold RI-overlay was performed by incubating the membranes with 250 nM RI overnight at 4° C., then the membranes were washed five times in TBST for 5 min. Detection of RI was performed using an anti-RI rabbit polyclonal antibody (Santa Cruz) at a concentration of 0.2 μg/μl for 1 hour at 4° C. Then the membranes were washed five times for 5 minutes in PBS followed by incubation with HRP-conjugated anti-rabbit IgGs (1:5000) for 1 hour at 4° C. The membranes were washed in PBS as described above before detection by Supersignal West Dura Extended Duration Substrate (Pierce).
(§2) Constructs and mutagenesis. […]
(§3) MEME3 and SM3 (scrambled negative control peptide) were cloned by preferred codon usage (Haas et al., 1996, Current Biol., 6:315-324) and with an N-terminal GFP-fusion. Lysate from transfected HEK293 cells (FIG. 10, left panel in A) and MEME3 synthesized on membrane (right panel in A) were analysed for R binding by RIα-^32P-overlay and RIIα-^32P overlay. […]

[2] = biological target: T1, N-terminal RIα deletion mutants (Bos taurus, UniProt P00514, A98S); assay: R-overlay with N-terminal RIα deletion mutants; type: binding
T1 construct: made in house; host or cells: E. coli BL21 (B121 [sic])
T1 sequence (P00514 25-380 A98S): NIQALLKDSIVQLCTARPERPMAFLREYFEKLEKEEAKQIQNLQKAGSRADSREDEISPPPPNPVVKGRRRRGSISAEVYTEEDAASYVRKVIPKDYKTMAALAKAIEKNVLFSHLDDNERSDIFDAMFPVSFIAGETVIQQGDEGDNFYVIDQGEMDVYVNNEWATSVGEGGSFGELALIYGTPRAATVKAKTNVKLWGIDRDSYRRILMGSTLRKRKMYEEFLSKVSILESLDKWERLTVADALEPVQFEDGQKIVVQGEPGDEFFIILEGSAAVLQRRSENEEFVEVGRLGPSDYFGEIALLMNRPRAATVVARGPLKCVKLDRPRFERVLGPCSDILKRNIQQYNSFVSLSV
Protocol: as §1, §2, §3

[3] = biological target: T2, PKA type I in lipid rafts of human peripheral blood T cells (Homo sapiens, UniProt P10644); assay: PKA type I content of lipid rafts from human T cells (immunoblot densitometry); type: cell-based; conditions: n=4; for reduction of PKA type I in lipid rafts: 12 hours
T2 construct: endogenous in cells; host or cells: human peripheral blood T cells
Protocol: (§4) Lipid Raft Purification. Isolation of lipid rafts or glycolipid-enriched membrane microdomains was performed as described in detail elsewhere (Zhang, W. et al., 1998, Immunity 9:239-246). In brief, cells were homogenized in 1 ml ice-cold lysis buffer (50 mM Hepes, pH 7.4, 100 mM NaCl, 5 mM EDTA, […], 10 mM sodium pyrophosphate, 1 mM Na3VO4, 50 mM NaF, 1 mM PMSF, and protease inhibitors) by 10 pestle strokes in a Dounce homogenizer, loaded at the bottom of a 40-5% sucrose gradient and centrifuged at 200,000 g for 5 or 20 h. 80 μl or 0.4-ml fractions were collected from the top. The fractions were analysed by immunoblot analysis. LAT was used as a marker for lipid raft fractions.
Isolation of T cells. Human peripheral blood T cells were purified by negative selection (95-98% pure) as described (Aandahl E M et al., 1998, FASEB J. 12:855-62). Lipid Raft Purification. Isolation of lipid rafts or glycosphingolipid-enriched membrane microdomains from T cells was performed by small scale ultracentrifugation. In brief, 20 million cells were homogenized in 250 μl ice-cold lysis buffer (50 mM Hepes, pH 7.4, 100 mM NaCl, 5 mM EDTA, […], 10 mM sodium pyrophosphate, 1 mM Na3VO4, 50 mM NaF, 1 mM PMSF, and protease inhibitors) by 10 pestle strokes in a Dounce homogenizer, loaded at the bottom of a 40 to 50 sucrose gradient and centrifuged at 200,000 g for 5 h. 80 μl fractions were collected from the top. The fractions were analysed by immunoblot analysis. LAT was used as a marker for lipid raft fractions. […]
Lipid rafts were purified from isolated human peripheral blood T cells treated with MEME3-Arg11 or SM3-Arg11 for 12 hours, followed by 10% PAGE and blotting onto a PVDF membrane and immunoblotting (FIG. 18, left panel). The PKA content was measured by densitometry of immunoblots (n=4). […] The very weak signal observed after immunoblotting using antibodies against RIIα (data not shown) was measured by densitometry of the autoradiogram. […]

[4] = biological target: T3, PKA-type II in lipid rafts of human peripheral blood T cells (Homo sapiens, UniProt P13861); assay: PKA type II content of lipid rafts from human T cells; type: cell-based; conditions: n=4
T3 construct: endogenous in cells; host or cells: human peripheral blood CD3+ T cells
T3 sequence (P13861 whole entry): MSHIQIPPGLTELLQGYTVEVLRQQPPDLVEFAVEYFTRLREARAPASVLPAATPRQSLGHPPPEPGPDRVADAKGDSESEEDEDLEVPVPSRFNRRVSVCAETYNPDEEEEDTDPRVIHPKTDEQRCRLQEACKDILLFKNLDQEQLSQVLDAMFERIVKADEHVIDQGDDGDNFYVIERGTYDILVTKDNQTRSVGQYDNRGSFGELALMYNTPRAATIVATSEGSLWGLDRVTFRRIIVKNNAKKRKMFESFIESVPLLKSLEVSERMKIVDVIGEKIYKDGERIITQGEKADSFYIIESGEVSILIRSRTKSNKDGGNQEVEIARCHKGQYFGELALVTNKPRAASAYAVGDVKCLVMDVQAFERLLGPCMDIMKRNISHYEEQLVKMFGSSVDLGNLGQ
Protocol: as §4
Lipid rafts were purified from isolated human peripheral blood T cells treated with MEME3-Arg11 or SM3-Arg11 for 12 hours, followed by 10% PAGE and blotting onto a PVDF membrane and immunoblotting (FIG. 18, left panel). The PKA content was measured by densitometry of immunoblots (n=4). PKA type I in cells treated with 10 μM or 25 μM M3-Arg11 was reduced by 80% and 90%, respectively. The very weak signal observed after immunoblotting using antibodies against RIIα (data not shown) was measured by densitometry of the autoradiogram. The PKA-type II level was not reduced in lipid rafts from human peripheral blood T cells treated with MEME3-Arg11 (FIG. 18, right panel, n=4).

Compound | binding to RIα (Δ1-11) and RIα (Δ1-15) (overlay) [1] | binding to RIα (Δ1-24) (overlay) [2] | reduction of PKA type I in lipid rafts ([3]; 10 μM) [%] | reduction of RI and C concentration in lipid rafts compared to SM3 ([3]; 10 μM, primary human T cells) [%] | reduction of PKA type I in lipid rafts ([3]; 25 μM) [%] | PKA-type II level in lipid rafts [4]
CC[C@H](C)[C@H](NC(=O)[C@H](CCC(N)=O)NC(=O)[C@H](CC(=O)O)NC(=O)[C@H](C)NC(=O)[C@H](CC(C)C)NC(=O)[C@H](CCC(N)=O)NC(=O)[C@H](CC(N)=O)NC(=O)[C@H](C)NC(=O)[C@H](Cc1ccc(O)cc1)NC(=O)[C@H](CCC(N)=O)NC(=O)[C@H](CCC(=O)O)NC(=O)[C@@H](N)CC(C)C)C(=O)N[C@H](C(=O)N[C@@H](CCCCN)C(=O)N[C@@H](CCC(=O)O)C(=O)N[C@@H](C)C(=O)N[C@H](C(=O)N[C@@H](CCC(=O)O)C(=O)N[C@@H](CCCCNC(=O)c1ccc2c(c1)C(=O)OC21c2ccc(O)cc2Oc2cc(O)ccc21)C(N)=O)[C@@H](C)O)[C@@H](C)CC [MEME3] | even higher affinity | No binding |  |  |  | 
LEQYANQLADQIIKEATERRRRRRRRRrr [MEME3-Arg11] |  |  | 80 | 80 | 90 | not reduced
